The structures appear in SMILES notation.

Chain of hKIF18A (1-374) (Q8NI77 1-374): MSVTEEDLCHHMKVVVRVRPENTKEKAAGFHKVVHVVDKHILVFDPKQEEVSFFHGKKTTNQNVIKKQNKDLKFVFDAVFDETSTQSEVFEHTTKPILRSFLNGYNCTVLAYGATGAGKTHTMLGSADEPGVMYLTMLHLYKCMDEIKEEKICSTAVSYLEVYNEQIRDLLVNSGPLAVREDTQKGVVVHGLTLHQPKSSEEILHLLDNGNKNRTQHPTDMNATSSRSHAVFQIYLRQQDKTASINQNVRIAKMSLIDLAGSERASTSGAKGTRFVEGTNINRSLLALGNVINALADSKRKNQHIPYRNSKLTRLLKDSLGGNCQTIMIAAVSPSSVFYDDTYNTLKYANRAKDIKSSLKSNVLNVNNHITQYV

The test concerns the target hKIF18A (1-374) (Homo sapiens (Human), UniProt Q8NI77). Nature of the test: Inhibition of KIF18A microtubule-dependent ATPase activity (ADP-Glo). The class given is biochemical. Particulars: 4 nM hKIF18A (1-374). The procedure: Test compounds were plated in a 3× dilution scheme in a 384-well plate. Assay buffer: 80 mM PIPES (pH 6.9), 1 mM MgCl2, 75 mM KCl, 1 mM EGTA, 1 mM DTT, 0.01% BSA, 0.005% Tween-20, 1 μM Taxol in H2O. […] After incubation at room temperature for 30 min, 2.5 μL of microtubule mix was added [0.2 mg/mL pre-formed microtubules, 2.0 mM ATP in assay buffer], the plate was centrifuged for 30 s and then incubated at 28° C. for 60 min. 5 μL of Promega® ADP-Glo Max R1 was added, the plate was centrifuged for 30 s, and the mixture incubated for 4 h at room temperature. 10 μL of Promega® ADP-Glo Max R2 was added, the plate centrifuged for 30 s, and incubated for 60 min at room temperature. Luminescence was measured with an Envision plate reader, and % Inhibition was calculated for each well as: ([max−min]−[test−min])/[max−min]. IC50 values were calculated from concentration vs. % Inhibition data via a four-parameter variable slope model.
A general note: ADP-Glo turns the ADP formed in a reaction into a luminescent signal.
Consider `O=S(=O)(CCO)Nc1ccc(-n2cc(-c3ccc(C(O)C4CCCC4)o3)nn2)c(N2CCC3(CC2)CC3)c1` (single isomer, unassigned) [Compound 51a], for which the IC50 (usually the point on the concentration scale where inhibition reaches its midpoint) was 2.4 nM. This counts as single-digit nanomolar.

As for `O=S(=O)(CCO)Nc1ccc(-n2cc(-c3ccc(C(O)C4CCCC4)o3)nn2)c(N2CCC3(CC2)CC3)c1` (single isomer, unassigned) [Compound 51b], the IC50 came out at 3.1 nM. The IC50 values of the last two compounds are within 1.5-fold of each other.

`CS(=O)(=O)Nc1ccc(-c2nnc(-c3cccc4c3OCCC4)[nH]2)c(N2CCC3(CC2)CC3)c1` [Compound 3, N-(4-(5-(chroman-8-yl)-4H-1,2,4-triazol-3-yl)-3-(6-azaspiro[2.5]octan-6-yl)phenyl)methanesulfonamide] returned an IC50 of 280 nM.

`c1cc(-c2nnc(-c3cccnc3N3CCC4(CC3)CC4)[nH]2)nc(N2CCOCC2)c1` [Compound 4, 4-(6-(5-(2-(6-azaspiro[2.5]octan-6-yl)pyridin-3-yl)-4H-1,2,4-triazol-3-yl)pyridin-2-yl)morpholine] registered an IC50 of 5600 nM. Compared with the last compound, the IC50 is about 20-fold higher.

Take `Cc1cc(-c2nnc(-c3ccc(NS(C)(=O)=O)cc3N3CCC4(CC3)CC4)[nH]2)nc(N2CCOCC2)n1` [Compound 6, N-(4-(5-(6-methyl-2-morpholinopyrimidin-4-yl)-4H-1,2,4-triazol-3-yl)-3-(6-azaspiro[2.5]octan-6-yl)phenyl)methanesulfonamide]: the IC50 was found to be 25 nM.

The compound `CCOC(=O)CS(=O)(=O)Nc1ccc(-c2nnc(-c3cccc(N4CCC(F)(F)CC4)n3)[nH]2)c(N2CCC3(CC2)CC3)c1` [Compound 7, ethyl 2-(N-(4-(5-(6-(4,4-difluoropiperidin-1-yl)pyridin-2-yl)-4H-1,2,4-triazol-3-yl)-3-(6-azaspiro[2.5]octan-6-yl)phenyl)sulfamoyl)acetate] had an IC50 of 83 nM.

Consider `O=S(=O)(CCO)Nc1ccc(-c2nnc(-c3cccc(N4CCC(F)(F)CC4)n3)[nH]2)c(N2CCC3(CC2)CC3)c1` [Compound 8, N-(4-(5-(6-(4,4-difluoropiperidin-1-yl)pyridin-2-yl)-4H-1,2,4-triazol-3-yl)-3-(6-azaspiro[2.5]octan-6-yl)phenyl)-2-hydroxyethane-1-sulfonamide], for which the IC50 came to 5.1 nM.

Consider `CC(C)(C)NS(=O)(=O)c1cccc(-c2cn(-c3ccc(NS(C)(=O)=O)cc3N3CCC4(CC3)CC4)nn2)c1` [Compound 12, N-(tert-butyl)-3-(1-(4-(methylsulfonamido)-2-(6-azaspiro[2.5]octan-6-yl)phenyl)-1H-1,2,3-triazol-4-yl)benzenesulfonamide], for which inhibition was half-maximal at 9.1 nM (IC50).

In turn, `Cc1cc(-c2cn(-c3ccc(NS(C)(=O)=O)cc3N3CCC4(CC3)CC4)nn2)nc(N2CCC(F)(F)CC2)c1` [Compound 14, N-(4-(4-(6-(4,4-difluoropiperidin-1-yl)-4-methylpyridin-2-yl)-1H-1,2,3-triazol-1-yl)-3-(6-azaspiro[2.5]octan-6-yl)phenyl)methanesulfonamide] had an IC50 of 39 nM.

As to `CS(=O)(=O)Nc1ccc(-n2cc(-c3cccc(N4CCC(F)(F)CC4)n3)nn2)c(N2CCCC2)c1` [Compound 16, N-(4-(4-(6-(4,4-difluoropiperidin-1-yl)pyridin-2-yl)-1H-1,2,3-triazol-1-yl)-3-(pyrrolidin-1-yl)phenyl)methanesulfonamide], the 50% inhibitory concentration (IC50) is 1100 nM.

`CS(=O)(=O)Nc1ccc(-n2cc(-c3cccc(N4CCC(F)(F)CC4)n3)cn2)c(N2CCC3(CC2)CC3)c1` [Compound 17, N-(4-(4-(6-(4,4-difluoropiperidin-1-yl)pyridin-2-yl)-1H-pyrazol-1-yl)-3-(6-azaspiro[2.5]octan-6-yl)phenyl)methanesulfonamide] displayed a half-inhibitory concentration (IC50) of 29 nM. This IC50 is about 38-fold lower than that of the compound before.

`CC1CCN(c2cc(NS(C)(=O)=O)ccc2-n2cc(-c3cccc(N4CCC(F)(F)CC4)n3)nn2)CC1` [Compound 18, N-(4-(4-(6-(4,4-difluoropiperidin-1-yl)pyridin-2-yl)-1H-1,2,3-triazol-1-yl)-3-(4-methylpiperidin-1-yl)phenyl)methanesulfonamide]: the IC50 stood at 8.7 nM. This IC50 lies about 3.3-fold lower than the previous one.

With `CS(=O)(=O)Nc1ccc(-n2cc(-c3cccc(N4CCC(F)(F)CC4)n3)nn2)c(N2CCC(C(F)F)CC2)c1` [Compound 19, N-(3-(4-(difluoromethyl)piperidin-1-yl)-4-(4-(6-(4,4-difluoropiperidin-1-yl)pyridin-2-yl)-1H-1,2,3-triazol-1-yl)phenyl)methanesulfonamide], the IC50 worked out at 14 nM.

In the case of `CS(=O)(=O)Nc1ccc(-n2cc(-c3cccc(N4CCC(F)(F)CC4)n3)nn2)c(N2CCC(C(F)(F)F)CC2)c1` [Compound 20, N-(4-(4-(6-(4,4-difluoropiperidin-1-yl)pyridin-2-yl)-1H-1,2,3-triazol-1-yl)-3-(4-(trifluoromethyl)piperidin-1-yl)phenyl)methanesulfonamide], the IC50 was found to be 23 nM.

As for `Cc1cc(-c2cn(-c3ccc(NS(C)(=O)=O)cc3N3CCC4(CC3)CC4)nn2)nc(N2CCC(F)(F)CC2)n1` [Compound 21, N-(4-(4-(2-(4,4-difluoropiperidin-1-yl)-6-methylpyrimidin-4-yl)-1H-1,2,3-triazol-1-yl)-3-(6-azaspiro[2.5]octan-6-yl)phenyl)methanesulfonamide], the IC50 came to 32 nM.

For `CS(=O)(=O)Nc1ccc(-n2cc(-c3cccc(C(O)C4CCCC4)n3)nn2)c(N2CCC3(CC2)CC3)c1` (stereo not drawn) [Compound 22, N-(4-(4-(6-(cyclopentyl(hydroxy)methyl)pyridin-2-yl)-1H-1,2,3-triazol-1-yl)-3-(6-azaspiro[2.5]octan-6-yl)phenyl)methanesulfonamide], the IC50 was found to be 11 nM.

`CS(=O)(=O)Nc1ccc(-n2cc(-c3cccc(CN4CCC(F)(F)CC4)n3)nn2)c(N2CCC3(CC2)CC3)c1` [Compound 23, N-(4-(4-(6-((4,4-difluoropiperidin-1-yl)methyl)pyridin-2-yl)-1H-1,2,3-triazol-1-yl)-3-(6-azaspiro[2.5]octan-6-yl)phenyl)methanesulfonamide] registered an IC50 of 11 nM.

`CS(=O)(=O)Nc1ccc(-n2cc(-c3ccc(C(O)C4CCCC4)o3)nn2)c(N2CCC3(CC2)CC3)c1` (stereo not drawn) [Compound 25, N-(4-(4-(5-(cyclopentyl(hydroxy)methyl)furan-2-yl)-1H-1,2,3-triazol-1-yl)-3-(6-azaspiro[2.5]octan-6-yl)phenyl)methanesulfonamide] displayed an IC50 of 4.7 nM. Against the preceding compound, the IC50 is about 2.3-fold lower.

The compound `Cc1cc(-c2cnc(-c3ccc(NS(C)(=O)=O)cc3N3CCC4(CC3)CC4)[nH]2)nc(N2CCC(F)(F)CC2)n1` [Compound 26, N-(4-(5-(2-(4,4-difluoropiperidin-1-yl)-6-methylpyrimidin-4-yl)-1H-imidazol-2-yl)-3-(6-azaspiro[2.5]octan-6-yl)phenyl)methanesulfonamide] registered an IC50 of 44 nM.

`CS(=O)(=O)Nc1ccc(-c2cnc(-c3cccc(N4CCOCC4)n3)[nH]2)c(N2CCC3(CC2)CC3)c1` [Compound 27, N-(4-(2-(6-morpholinopyridin-2-yl)-1H-imidazol-5-yl)-3-(6-azaspiro[2.5]octan-6-yl)phenyl)methanesulfonamide]: the IC50 is over 3000 nM.

`Cc1cc(-c2cnc(-c3ccc(NS(C)(=O)=O)cc3N3CCC4(CC3)CC4)[nH]2)nc(N2CCC(F)(F)CC2)c1` [Compound 28, N-(4-(5-(6-(4,4-difluoropiperidin-1-yl)-4-methylpyridin-2-yl)-1H-imidazol-2-yl)-3-(6-azaspiro[2.5]octan-6-yl)phenyl)methanesulfonamide]: the IC50 is 45 nM.

Take `CS(=O)(=O)Nc1ccc(-c2ncc(-c3cccc(N4CC5C(C4)C5(F)F)n3)[nH]2)c(N2CCC3(CC2)CC3)c1` (stereo not drawn) [Compound 30, N-(4-(5-(6-(6,6-difluoro-3-azabicyclo[3.1.0]hexan-3-yl)pyridin-2-yl)-1H-imidazol-2-yl)-3-(6-azaspiro[2.5]octan-6-yl)phenyl)methanesulfonamide]: the IC50 came to 21 nM. This IC50 is about 2.1-fold lower than that of the compound before.

Regarding `CS(=O)(=O)Nc1ccc(-c2ncc(-c3cccc(NC4CC(F)(F)C4)n3)[nH]2)c(N2CCC3(CC2)CC3)c1` [Compound 32, N-(4-(5-(6-((3,3-difluorocyclobutyl)amino)pyridin-2-yl)-1H-imidazol-2-yl)-3-(6-azaspiro[2.5]octan-6-yl)phenyl)methanesulfonamide], the concentration for half-maximal inhibition (IC50) came to 140 nM. Against the preceding compound, the IC50 is about 6.7-fold higher.

`CS(=O)(=O)Nc1ccc(-c2ncc(-c3cccc(N4CC(F)(F)C4)n3)[nH]2)c(N2CCC3(CC2)CC3)c1` [Compound 33, N-(4-(5-(6-(3,3-difluoroazetidin-1-yl)pyridin-2-yl)-1H-imidazol-2-yl)-3-(6-azaspiro[2.5]octan-6-yl)phenyl)methanesulfonamide] gave a 50% inhibitory concentration (IC50) of 36 nM. This IC50 lies about 3.9-fold lower than the previous one.

As to `CC(C)(C)NS(=O)(=O)c1cccc(-c2cnc(-c3ccc(NS(C)(=O)=O)cc3N3CCC4(CC3)CC4)[nH]2)c1` [Compound 34, N-(tert-butyl)-3-(2-(4-(methylsulfonamido)-2-(6-azaspiro[2.5]octan-6-yl)phenyl)-1H-imidazol-5-yl)benzenesulfonamide], the midpoint of inhibition, the IC50, lay at 74 nM.

`O=S(=O)(CCO)Nc1ccc(-c2ncc(-c3cccc(N4CCC(F)(F)CC4)n3)[nH]2)c(N2CCC3(CC2)CC3)c1` [Compound 35, N-(4-(5-(6-(4,4-difluoropiperidin-1-yl)pyridin-2-yl)-1H-imidazol-2-yl)-3-(6-azaspiro[2.5]octan-6-yl)phenyl)-2-hydroxyethane-1-sulfonamide] registered an IC50 of 27 nM.

For `CS(=O)(=O)Nc1ccc(-n2cc(-c3ccn(C4CCC(F)(F)CC4)n3)nn2)c(N2CCC3(CC2)CC3)c1` [Compound 41, N-(4-(4-(1-(4,4-difluorocyclohexyl)-1H-pyrazol-3-yl)-1H-1,2,3-triazol-1-yl)-3-(6-azaspiro[2.5]octan-6-yl)phenyl)methanesulfonamide], 16 nM corresponded to half-maximal inhibition (IC50).
